{"source": "patent US20030113940A1", "about": "“Antibodies specific for nanotubes and related methods and compositions” (priority 2001, published 2003)", "key": {"[1]": {"test_system": "anti-fullerene antibodies binding to 1-RSA", "assay": "ELISA inhibition of antibody binding to 1-RSA", "set-up": "species or system mouse", "method": "After a total of three immunizations at 3-week intervals, confirmation of an immune response was determined by direct ELISA in which polystyrene plates (Corning) were coated with the 1-RSA conjugate (0.5 mg/ml in 0.1 M NaHCO3, pH 9), and binding of preimmune and immune sera were determined by standard procedures. Development was with horseradish peroxidase-labeled goat anti-mouse IgG (Sigma), which tested negative for crossreaction with an IgM preparation. The substrate used was o-phenylenediamine.\n(§1) Specificity of the response was determined by two procedures: double diffusion in agar (22) and competitive inhibition, as determined by ELISA using RSA and BSA conjugates of the fullerenes, as well as the oligo lysine derivatives. The fullerenes themselves were not soluble enough in aqueous solutions.\nThe adenosine conjugate had been synthesized using the same strategy used for the fullerenes, i.e., linkage to the epsilon amino groups of the lysines via an N-hydroxysuccinimide ester derivative.\nSpecificity also was determined by ELISA inhibition studies (FIG. 6). Binding to 1-RSA was inhibited by 1-RSA, 1-BSA, 1-TG, 3-pentalysine, 2-pentalysine, and 1-pentalysine. Inhibition by 2-pentalysine is additional evidence for nonparticipation of the linker group, i.e., specificity for the C60 moiety. […]"}, "[2]": {"test_system": "human keratinocytes and fibroblasts", "conditions": "C60 suspension; cited from earlier work"}, "human keratinocytes": {"test_system": "human keratinocytes", "conditions": "after 6 hours; 32,000 dpm, 1.3 μM; cited from earlier work"}, "[3]": {"test_system": "anti-fullerene antibodies (immune serum)", "assay": "Specificity of the immune response by double diffusion in agar", "format": "binding, mouse", "method": "as §1\nSpecificity of the immune response first was determined by double diffusion in agar.\nConfluent lines of precipitation were seen associated with wells 1-5 with a spur between wells 2 and 3, pointing toward 3, i.e., toward 1-BSA. This finding is evidence of a population of antibodies reactive with both 1 and 2, with an additional population specific for the carrier protein of the immunogen, 1-TG. The identity of precipitation with 1 and 2 is evidence for the lack of participation of the linker group, which is missing from 2. […] Anti-TG also could be detected by ELISA (below)."}, "Air sensitivity": {"assay": "Air sensitivity", "format": "physicochemical", "from_the_text": "While previous work reported in the literature performed HPLC under aerobic conditions, (see for example Funasaka et al. 1995) these studies determined that anaerobic controls better preserved the fraction of Gd@C82 in solution. […] The fraction containing the Gd@C82 was identified using MS. The solubility of fullerenes in o-xylene is about three times that of toluene and this greatly increases the ratio of fullerenes in solution to those retained on the stationary phase. Therefore, the capacity or amount of fullerenes purified per injection was very large. Each injection contained 2 ml of saturated fullerene o-xylene solution (about 30 mg of fullerenes)."}, "[4]": {"assay": "Atomic force microscopy of antibody binding to SWNT", "method": "C60 Antibodies on SWNTs were directly imaged by atomic force microscopy. SWNT ropes on mica were initially imaged, the surface was then exposed to antibody solution, and finally; the same SWNT was imaged again in air. This sequence distinguishes any preexisting surface particles from bound antibodies. Three drops of aqueous SWNT suspension (0.064 mg/mL in Triton 100×surfactant, from Tubes@Rice) were spun onto a freshly cleaved mica surface. One drop of fullerene-specific antibody(0.00125 mg/mL in 10 mM phosphate buffer, 150 mM NaCl, pH 7.3) was then deposited onto the surface. Liquid was removed by glass piper after 8 min, and the sample was dried in air. The sample was then washed with 60 drops of water while spinning to remove weakly bound, physisorbed antibody layers. The same SWNT was then imaged in FIG. 24. A significant number of objects are adsorbed on the nanotube, in previously clean regions, and on the mica substrate. […] The mica antibody images are similar in height, width, and dimpled appearance to those previously reported for monoclonal mouse IgG1 on mica (10).\nIn a separate experiment, we mixed an aqueous SWNT suspension with an anti-fullerene antibody solution and then imaged the SWNTs on mica. One drop of antibody solution (0.25 mg/mL) was mixed with 5 mL of SWNT suspension (0.064 mg/ml) and cooled at 5° C. for 2 h. Three drops of this mixture were spun on a freshly cleaved […] and imaged without washing."}}, "note": "Read-outs that look alike come from different tables or passages of the source."}
{"molecule": "rabbit serum albumin [RSA]", "values": [{"measurement": "inhibition of binding to 1-RSA (ELISA)", "setting": "[1]", "value": "No inhibition"}]}
{"molecule": "c12c3c4c5c1c1c6c7c2c2c8c3c3c9c4c4c%10c5c5c1c1c6c6c%11c7c2c2c7c8c3c3c8c9c4c4c9c%10c5c5c1c1c6c6c%11c2c2c7c3c3c8c4c4c9c5c1c1c6c2c3c41", "note": "[Compound C60, fullerene-C60]", "values": [{"measurement": "effect on the rate of thymidine uptake", "setting": "[2]", "value": "no effect"}, {"measurement": "applied radioactivity taken up by the keratinocytes", "setting": "human keratinocytes", "value": "approximately 50%"}]}
{"molecule": "bovine thyroglobulin [TG]", "values": [{"measurement": "inhibition of binding to 1-RSA (ELISA)", "setting": "[1]", "value": "No inhibition"}, {"measurement": "precipitation in double diffusion in agar", "setting": "[3]; TG solution diluted 5-fold", "value": "line of precipitation was seen"}, {"measurement": "precipitation in double diffusion in agar", "setting": "[3]; undiluted antigen solutions", "value": "no visible precipitate"}]}
{"molecule": "Gd@C82(OH)x", "values": [{"measurement": "air sensitivity", "setting": "Air sensitivity", "value": "does not appear to be air sensitive"}]}
{"molecule": "fullerene-specific antibody: monoclonal antibody produced by hybridoma 1-10F-8A (ATCC PTA-279) (antibody, V domains shown, Mouse [murine]; Mouse) VH: MGCSWGMLFLLSITAGVHCQVHLQQSGPELVRPGASVKISCKTSGYVFSSSWMNWVKQRPGQGLKWIGRIYPGNGNTNYNEKFKGKATLTADKSSNTAYMQLSSLTSVDSAVYFCATSSAYWGQGTLLTVSA VL: DIQMTQTTSSLSASLGDRVTFSCSASQDINNYLNWYQQKPDGTIKLLIYYTSSLRSGVPSRFSGSGSGTDYSLTINNLEPEDIATYFCQQYSRLPFTFGSGTKLEIKRK", "values": [{"measurement": "binding of antibody to SWNT (AFM image)", "setting": "[4]", "value": "antibodies on the nanotube and on mica"}, {"measurement": "binding of antibody to SWNT (AFM image)", "setting": "[4]; listed as anti-fullerene/anti-nanotube antibody", "value": "bound to a nanotube"}, {"measurement": "binding of antibody to SWNT (AFM image)", "setting": "[4]; listed as monoclonal IgG C60-specific antibody", "value": "specifically binds"}]}
